Measured values published in US7691594B2, “Anticancer agent” (Fujifilm Corporation, priority 2006, dated 2010).

How the values were obtained:
[1] = test system: messenger RNA of PCDH20 gene in ABC-1 cells; assay: RT-PCR of PCDH20 gene messenger RNA expression after inhibitor treatment, ABC-1 cells; format: cell-based, human
Description: (§1) Specifically, the results were obtained by adding either 5-aza-deoxycytidine (5-aza-dCyd) serving as a DNA methyltransferase inhibitor to each cell type at concentrations of 5 or 10 μM for 5 days and/or trichostatin A (TSA) serving as a non-specific inhibitory substance for histone deacetylase to each cell type at concentrations of […] or […] for 12 hours before cell harvest during culture, and then carrying out RT-PCR, followed by comparison of the expression levels of PCDH20 gene messenger RNA via electrophoresis. The expression level of GAPDH was used as a control in RT-PCR.
(§2) Cell lines used herein were squamous cell lines EBC-1, LK-2, PC10, VMRC-LCP, LC-1sq, and ACC-LC-73; adenocarcinoma cell lines 11-18, A549, ABC-1, RERF-LC-OK, VMRC-LCD, SK-LC-3, and RERF-LC-KJ; and large cell carcinoma cell lines KNS-62, 86-2, LU65, PC-13, ACC-LC-33, NCI-H460, and LU99A. As lung cancer samples derived from clinical specimens, paraffin-embedded samples derived from 53 types of adenocarcinoma and rapidly-frozen samples derived from 59 types of adjacent normal site were used. Cancer samples derived from clinical specimens were obtained from the National Cancer Center, Hokushin General Hospital of Nagano Prefectural Welfare Federation and used under agreement with each patient and approval of the ethical committee of each organization. […]

[2] = test system: messenger RNA of PCDH20 gene in LU65 cells; assay: RT-PCR of PCDH20 gene messenger RNA expression after inhibitor treatment, LU65 cells; format: cell-based, human
Description: as §1, §2

[3] = TSA 100 ng/ml for 12 hours before harvest together with 5-aza-dCyd
[4] = 5-aza-dCyd 5 μM and 10 μM for 5 days, GAPDH control

| SMILES | expression level of messenger RNA of PCDH20 gene (RT-PCR), combination [1, 3] | expression level of messenger RNA of PCDH20 gene (RT-PCR), combination [2, 3] | expression level of messenger RNA of PCDH20 gene (RT-PCR) [1, 4] | expression level of messenger RNA of PCDH20 gene (RT-PCR) [2, 4] |
| --- | --- | --- | --- | --- |
| CC(/C=C/C(=O)NO)=C\[C@@H](C)C(=O)c1ccc(N(C)C)cc1 [trichostatin A] | elevated synergistically | elevated synergistically |  |  |
| Nc1ncn([C@H]2C[C@H](O)[C@@H](CO)O2)c(=O)n1 [5-aza-deoxycytidine] |  |  | transcription suppression was canceled | transcription suppression was canceled |
